# Test results from patent US20220378802A1, “TREATMENT OF ALCOHOLIC HEPATITIS” (Durect Corporation, priority 2019, published 2022).
# “Also recorded” adds a separate entry of the source. Read-outs that look alike come from different tables or passages of the source.
# Legend:
# [1] = Pharmacokinetics of 25HC3S in alcoholic hepatitis patients (Phase 2a, IV infusion); type: in vivo, human; settings: for PK parameters, moderate versus severe AH groups: comparison at the same dose; for half-life / clearance / Tmax / AUC(0-inf) / Cmax: human, plasma
# Procedure: All patients received IV infused 25HC3S (at 30, 90, or 150 mg) on Day 1 and Day 4 (if still hospitalized), and were followed for 28-days. The final enrollment was 19 patients comprised of: 8 patients (4 moderate and 4 severe) dosed at 30 mg, 7 patients (3 moderate and 4 severe) dosed at 90 mg, and 4 patients (4 severe) dosed at 150 mg. • Study Drug A 25HC3S sodium salt solution contained: • 30 mg/mL 25HC3S sodium salt; • 240 mg/mL hydroxypropyl-beta-cyclodextrin; and • 50 mmole phosphate buffer • The 25HC3S sodium salt solution was diluted in 100 mL 5% dextrose or 0.9% sodium chloride infusion solution: • Dose 1: 30 mg of 25HC3S sodium salt in 100 mL 5% dextrose or 0.9% sodium chloride • Dose 2: 90 mg of 25HC3S sodium salt in 100 mL 5% dextrose or 0.9% sodium chloride • Dose 3: 150 mg of 25HC3S sodium salt in 100 mL 5% dextrose or 0.9% sodium chloride • 25HC3S sodium salt was administered by slow intravenous infusion over 2 hrs (50 mL/h) until the entire dose is given at Day 1 and Day 4. If a patient met the hospital discharge criteria prior to the second dose, the patient received only one dose instead of two doses. • Study Procedure The study was conducted in two parts. Part A included patients with MELD scores of 11-20 (moderate AH patients), and Part B included patients with MELD of scores 21-30. The doses of 25HC3S sodium salt administered were 30 mg and 90 mg for Part A and 30 mg, 90 mg and 150 mg for Part B, with 4 patients per dose group per Part (except for only 3 patients in the 90 mg cohort of Part A). All patients were followed to Day 28. • The study started in 4 moderate AH patients (Part A) at 30 mg dose level. After completing the dosing, a Dose Escalation Committee (DEC) reviewed safety, tolerability and pharmacokinetic (PK) data from all 4 patients and determined that it was safe to move forward to dose 4 severe AH patients (Part B) at the same dose level, 30 mg, as well as escalating the dose level to 90 mg in moderate patients (Part A). The same dose escalation procedure was then conducted in Part B until all 4 patients received 150 mg doses. • A flow diagram of the study is depicted in FIG. 2. Each dose cohort enrolled up to 4 subjects. Study subjects received up to 2 doses of 25HC3S sodium salt. The first dose was administered on Day 1 and, if still hospitalized, the second dose was administered on Day 4. A pharmacokinetic (PK) sample was collected at: Time 0 (pre-dose), 1 hour post-dose initiation, 2 hours (end of infusion), 3 hours post-dose initiation, 4 hours post-dose initiation, 8 hours post-dose initiation, 12 hours post-dose initiation, 24-hours post-dose initiation and 50 hours post-dose initiation. • Evaluation: Assessment of Pharmacodynamic (PD) Signals: • Change in Lille score, MELD score, biochemistry (such as bilirubin) • Method and Timing • Lille score was calculated at Day 7 • MELD score was calculated at Screening, Day 1 (pre-dose), Day 7 and Day 28 • Biochemistry and all safety lab parameters were collected at Screening, Day 1 and Day 4 at pre-dose, Day 1 and Day 4 at 12 hrs after dose completion/end of infusion, Day 2, Day 7, Day 28, and if hospitalized on Days 3, 4, 5, and 6. • Assessment of Safety Signals: • Safety was determined based on clinical and laboratory monitoring. • Assessment of PK: • Plasma concentration data of 25HC3S from each patient were used to calculate relevant PK parameters determined using a standard linear/log-trapezoidal rule non-compartmental method with an appropriate PK data analysis program. • The time points for PK sample collection were (after Dose 1 only): 0 (pre-dose), 1 hr post-dose initiation, 2 hrs (end of infusion), 3, 4, 8, 12, 24 hrs post-dose
# [2] = tested on: patients with alcoholic hepatitis; experiment: Safety and tolerability in Phase 2a trial; type: in vivo, human; settings: all AH patients
# Procedure: All patients received IV infused 25HC3S (at 30, 90, or 150 mg) on Day 1 and Day 4 (if still hospitalized), and were followed for 28-days. The final enrollment was 19 patients comprised of: 8 patients (4 moderate and 4 severe) dosed at 30 mg, 7 patients (3 moderate and 4 severe) dosed at 90 mg, and 4 patients (4 severe) dosed at 150 mg. • Study Drug A 25HC3S sodium salt solution contained: • 30 mg/mL 25HC3S sodium salt; • 240 mg/mL hydroxypropyl-beta-cyclodextrin; and • 50 mmole phosphate buffer • The 25HC3S sodium salt solution was diluted in 100 mL 5% dextrose or 0.9% sodium chloride infusion solution: • Dose 1: 30 mg of 25HC3S sodium salt in 100 mL 5% dextrose or 0.9% sodium chloride • Dose 2: 90 mg of 25HC3S sodium salt in 100 mL 5% dextrose or 0.9% sodium chloride • Dose 3: 150 mg of 25HC3S sodium salt in 100 mL 5% dextrose or 0.9% sodium chloride • 25HC3S sodium salt was administered by slow intravenous infusion over 2 hrs (50 mL/h) until the entire dose is given at Day 1 and Day 4. If a patient met the hospital discharge criteria prior to the second dose, the patient received only one dose instead of two doses. • Study Procedure The study was conducted in two parts. Part A included patients with MELD scores of 11-20 (moderate AH patients), and Part B included patients with MELD of scores 21-30. The doses of 25HC3S sodium salt administered were 30 mg and 90 mg for Part A and 30 mg, 90 mg and 150 mg for Part B, with 4 patients per dose group per Part (except for only 3 patients in the 90 mg cohort of Part A). All patients were followed to Day 28. • The study started in 4 moderate AH patients (Part A) at 30 mg dose level. After completing the dosing, a Dose Escalation Committee (DEC) reviewed safety, tolerability and pharmacokinetic (PK) data from all 4 patients and determined that it was safe to move forward to dose 4 severe AH patients (Part B) at the same dose level, 30 mg, as well as escalating the dose level to 90 mg in moderate patients (Part A). […]
# [3] = AH vs healthy subjects, 150 mg, ↑
# [4] = AH vs healthy subjects, 150 mg, ↓
# [5] = iv, 30 mg, Moderate AH, cohort 1A, 30 mg IV infusion, N=3
# [6] = iv, 30 mg, Severe AH, cohort 1B, 30 mg IV infusion, N=4
# [7] = iv, 90 mg, Moderate AH, cohort 2A, 90 mg IV infusion, N=3
# [8] = iv, 90 mg, Severe AH, cohort 2B, 90 mg IV infusion, N=4
# [9] = iv, 150 mg, Severe AH, cohort 3B, 150 mg IV infusion, N=4
# [10] = same dose level, single dose of 150 mg
smiles,measurement,setting,value
"C[C@H](CCCC(C)(C)O)[C@H]1CC[C@H]2[C@@H]3CC=C4C[C@@H](OS(=O)(=O)O)CC[C@]4(C)[C@H]3CC[C@]12C [25HC3S, 5-cholesten-3,25-diol, 3-sulfate]",drug exposure (AUC and Cmax) versus dose,"[1]; AH patients, 30, 90, 150 mg",dose proportional
same,Time to maximum drug concentrations (Tmax),"[1]; AH patients, 2 hour IV infusion",at the end of 2 hour infusion
same,Fold Change in PK: AUCinf,[1]; [3],↑ ~5×
same,Fold Change in PK: Cmax,[1]; [3],↑ 2×
same,Fold Change in PK: T½,[1]; [3],↑ 2×
same,Fold Change in PK: CL,[1]; [4],↓ 0.25×
same,Fold Change in PK: V,[1]; [4],↓ 0.5×
same,V,"[1]; Moderate AH, cohort 1A, 30 mg IV infusion, N=3",24.8 (1.6) L
same,V,"[1]; Moderate AH, cohort 2A, 90 mg IV infusion, N=3",25.8 (10.5) L
same,V,"[1]; Severe AH, cohort 1B, 30 mg IV infusion, N=4",26.1 (4.9) L
same,V,"[1]; Severe AH, cohort 2B, 90 mg IV infusion, N=4",35.3 (10.8) L
same,V,"[1]; Severe AH, cohort 3B, 150 mg IV infusion, N=4",27.8 (5.9) L
same,"PK parameters, moderate versus severe AH groups",[1],uninfluenced by the severity of the disease; also recorded: similar
same,"PK parameters, moderate versus severe AH groups",[1]; listed as 25HC3S sodium,similar
same,"systemic clearance, fold lower in AH patients compared to healthy subjects",[1]; for a given dose,about 5 fold
same,decrease of clearance in AH patients compared to healthy subjects,[1]; healthy subjects from an earlier study,80%
same,half-life,"[1]; intravenous, AH patients, range over groups, read-out: half-life (t1/2)",4 to 6 h
same,clearance,"[1]; intravenous, AH patients, read-out: Mean clearance",83.3 to 117 mL/min
same,Tmax,"[1]; iv, 30 mg, Moderate AH, cohort 1A, 30 mg IV infusion over 2 h, after Dose 1, N=3",2.2 h
same,AUC(0-inf),[1]; [5],6540 ng·h/mL
same,Cmax,[1]; [5],1280 ng/mL
same,clearance,"[1]; iv, 30 mg, Moderate AH, cohort 1A, 30 mg IV infusion, N=3, read-out: CL (converted)",98.3 mL/min
same,half-life,"[1]; iv, 30 mg, Moderate AH, cohort 1A, 30 mg IV infusion, N=3, read-out: T½ (converted)",3.7 h
same,AUC(0-inf),[1]; [6],7720 ng·h/mL
same,Cmax,[1]; [6],1340 ng/mL
same,Tmax,[1]; [6],1.8 h
same,clearance,"[1]; iv, 30 mg, Severe AH, cohort 1B, 30 mg IV infusion, N=4, read-out: CL (converted)",68.3 mL/min
same,half-life,"[1]; iv, 30 mg, Severe AH, cohort 1B, 30 mg IV infusion, N=4, read-out: T½ (converted)",1.8 h
same,AUC(0-inf),[1]; [7],14300 ng·h/mL
same,Cmax,[1]; [7],3630 ng/mL
same,Tmax,[1]; [7],2 h
same,clearance,"[1]; iv, 90 mg, Moderate AH, cohort 2A, 90 mg IV infusion, N=3, read-out: CL (converted)",110 mL/min
same,half-life,"[1]; iv, 90 mg, Moderate AH, cohort 2A, 90 mg IV infusion, N=3, read-out: T½ (converted)",2.7 h
same,AUC(0-inf),[1]; [8],20400 ng·h/mL
same,Cmax,[1]; [8],3290 ng/mL
same,Tmax,[1]; [8],2.3 h
same,clearance,"[1]; iv, 90 mg, Severe AH, cohort 2B, 90 mg IV infusion, N=4, read-out: CL (converted)",91.7 mL/min
same,half-life,"[1]; iv, 90 mg, Severe AH, cohort 2B, 90 mg IV infusion, N=4, read-out: T½ (converted)",5.1 h
same,AUC(0-inf),[1]; [9],27100 ng·h/mL
same,Cmax,[1]; [9],6820 ng/mL
same,Tmax,[1]; [9],2.1 h
same,clearance,"[1]; iv, 150 mg, Severe AH, cohort 3B, 150 mg IV infusion, N=4, read-out: CL (converted)",96.7 mL/min
same,half-life,"[1]; iv, 150 mg, Severe AH, cohort 3B, 150 mg IV infusion, N=4, read-out: T½ (converted)",3.4 h
same,increase in AUC in AH patients compared to healthy subjects,[1]; [10],about 5 fold
same,increase in Cmax in AH patients compared to healthy subjects,[1]; [10],2 fold
same,safety / tolerability,"[2]; 30, 90, 150 mg",safe and well tolerated
same,serious adverse events,"[2]; 30, 90, 150 mg",no drug-related serious adverse events; also recorded: no treatment emergent serious adverse events; also recorded: no serious adverse effects related to 25HC3S
same,"discontinuations, early withdrawal or termination due to adverse effects",[2],"no discontinuations, early withdrawal or termination"
